Results as given in publication PMC10215302 (Antibiotics, 2023).
Where two headings read alike, the source gives them in different places.

Legend:
S. aureus SA0077 = settings: for MIC values: Table S1: SA0077 Abf (passages on antibiotic-free media)
S. aureus SA0085 = settings: for MIC values: Table S1: SA0085 Abf (passages on antibiotic-free media)
[1] = tested on: S. aureus derivative strains; settings: for MIC: daptomycin-selected derivative strains without WalK mutations (all except SA0422), susceptible
[2] = SA0077, selecting agent DAP, passage 20
[3] = SA0077, selecting agent DAP, passage 40
[4] = SA0077, selecting agent VAN, passage 0
[5] = SA0077, selecting agent VAN, passage 5
[6] = SA0077, selecting agent VAN, passage 20
[7] = SA0077, selecting agent VAN, passage 40
[8] = SA0422, selecting agent DAP, passage 5
[9] = SA0422, selecting agent DAP, passage 20
[10] = SA0422, selecting agent DAP, passage 40
[11] = SA0422, selecting agent VAN, passage 0
[12] = SA0422, selecting agent VAN, passage 5
[13] = SA0422, selecting agent VAN, passage 20
[14] = SA0422, selecting agent VAN, passage 40
[15] = SA0736, selecting agent DAP, passage 5
[16] = SA0736, selecting agent DAP, passage 20
[17] = SA0736, selecting agent DAP, passage 40Y (yellow colonies)
[18] = SA0736, selecting agent VAN, passage 5
[19] = SA0736, selecting agent VAN, passage 20
[20] = SA0736, selecting agent VAN, passage 40
[21] = Table S1: SA0736 DAP-W (40 passages on daptomycin, white colonies)
[22] = Table S1: SA0736 DAP-Y (40 passages on daptomycin, yellow colonies)
[23] = SA0085, selecting agent DAP, passage 5
[24] = SA0085, selecting agent DAP, passage 40
[25] = SA0085, selecting agent VAN, passage 0
[26] = SA0085, selecting agent VAN, passage 5
[27] = SA0085, selecting agent VAN, passage 20
[28] = SA0085, selecting agent VAN, passage 40
[29] = ATCC 29213, selecting agent DAP, passage 5
[30] = ATCC 29213, selecting agent DAP, passage 20
[31] = ATCC 29213, selecting agent DAP, passage 40
[32] = ATCC 29213, selecting agent VAN, passage 0
[33] = ATCC 29213, selecting agent VAN, passage 5
[34] = ATCC 29213, selecting agent VAN, passage 20
[35] = ATCC 29213, selecting agent VAN, passage 40
[36] = Table S1: RN4220 ∆ (strain with deletion in SACOL1927)

For dalbavancin, the MIC (S. aureus SA0077; SA0077, selecting agent DAP, passage 5) was less than 0.03 µg/mL, the MIC (S. aureus SA0077; [2]) was 0.125 µg/mL and the MIC (S. aureus SA0077; [3]) was 0.125 µg/mL. The MIC (S. aureus SA0077; [4]) was 0.03 µg/mL, the MIC (S. aureus SA0077; [5]) was 0.25 µg/mL and the MIC (S. aureus SA0077; [6]) was 1 µg/mL. The MIC (S. aureus SA0077; [7]) was 2 µg/mL, the MIC values (S. aureus SA0077) was 0.03 µg/mL and the MIC (S. aureus SA0422; [8]) was 0.06 µg/mL. The MIC (S. aureus SA0422; [9]) was 0.25 µg/mL, the MIC (S. aureus SA0422; [10]) was 0.25 µg/mL and the MIC (S. aureus SA0422; [11]) was 0.03 µg/mL. For the same substance, the MIC (S. aureus SA0422; [12]) was 0.125 µg/mL, the MIC (S. aureus SA0422; [13]) was 0.5 µg/mL and the MIC (S. aureus SA0422; [14]) was 1 µg/mL. The MIC (S. aureus SA0736; [15]) was 0.03 µg/mL, the MIC (S. aureus SA0736; [16]) was 0.25 µg/mL and the MIC (S. aureus SA0736; [17]) was 0.5 µg/mL. For the same substance, the MIC (S. aureus SA0736; SA0736, selecting agent VAN, passage 0) was 0.03 µg/mL, the MIC (S. aureus SA0736; [18]) was 0.125 µg/mL and the MIC (S. aureus SA0736; [19]) was 1 µg/mL. For the same substance, the MIC (S. aureus SA0736; [20]) was 1 µg/mL, the MIC values (S. aureus SA0736; [21]) was 0.5 µg/mL and the MIC values (S. aureus SA0736; [22]) was 0.5 µg/mL. The MIC (S. aureus SA0085; [23]) was less than 0.016 µg/mL, the MIC (S. aureus SA0085; [24]) was 0.125 µg/mL and the MIC (S. aureus SA0085; [25]) was less than 0.016 µg/mL. For the same substance, the MIC (S. aureus SA0085; [26]) was 0.06 µg/mL, the MIC (S. aureus SA0085; [27]) was 0.5 µg/mL and the MIC (S. aureus SA0085; [28]) was 0.25 µg/mL. For the same substance, the MIC values (S. aureus SA0085) was 0.03 µg/mL, the MIC [1] was no more than 0.125 µg/mL and the MIC (S. aureus ATCC 29213; [29]) was 0.03 µg/mL. For the same substance, the MIC (S. aureus ATCC 29213; [30]) was 0.06 µg/mL, the MIC (S. aureus ATCC 29213; [31]) was 0.125 µg/mL and the MIC (S. aureus ATCC 29213; [32]) was less than 0.016 µg/mL. It also gave an MIC (S. aureus ATCC 29213; [33]) of less than 0.016 µg/mL, an MIC (S. aureus ATCC 29213; [34]) of less than 0.016 µg/mL and an MIC (S. aureus ATCC 29213; [35]) of 2 µg/mL. It also gave an MIC values (S. aureus RN4220; Table S1: RN4220 WT) of 0.03 µg/mL and an MIC values (S. aureus RN4220; [36]) of 0.03 µg/mL.

For telavancin [TLV], the MIC (S. aureus SA0077; [2]) was 0.125 µg/mL, the MIC (S. aureus SA0077; [3]) was 0.125 µg/mL and the MIC (S. aureus SA0077; [4]) was 0.125 µg/mL. For the same substance, the MIC (S. aureus SA0077; [5]) was 0.06 µg/mL, the MIC (S. aureus SA0077; [6]) was 0.5 µg/mL and the MIC (S. aureus SA0077; [7]) was 1 µg/mL. The MIC values (S. aureus SA0077) was 0.03 µg/mL, the MIC (S. aureus SA0422; [8]) was 0.125 µg/mL and the MIC (S. aureus SA0422; [9]) was 0.25 µg/mL. For the same substance, the MIC (S. aureus SA0422; [10]) was 0.25 µg/mL, the MIC (S. aureus SA0422; [11]) was 0.125 µg/mL and the MIC (S. aureus SA0422; [12]) was 0.25 µg/mL. The MIC (S. aureus SA0422; [13]) was 0.5 µg/mL, the MIC (S. aureus SA0422; [14]) was 1 µg/mL and the MIC (S. aureus SA0736; [15]) was 0.125 µg/mL. The MIC (S. aureus SA0736; [16]) was 0.125 µg/mL, the MIC (S. aureus SA0736; SA0736, selecting agent DAP, passage 40W (white colonies)) was 0.125 µg/mL and the MIC (S. aureus SA0736; [17]) was 0.125 µg/mL. For the same substance, the MIC (S. aureus SA0736; [18]) was 0.25 µg/mL, the MIC (S. aureus SA0736; [19]) was 0.5 µg/mL and the MIC (S. aureus SA0736; [20]) was 0.5 µg/mL. For the same substance, the MIC values (S. aureus SA0736; [21]) was “.125 µg/mL”, the MIC values (S. aureus SA0736; [22]) was “.125 µg/mL” and the MIC (S. aureus SA0085; [23]) was 0.06 µg/mL. The MIC (S. aureus SA0085; SA0085, selecting agent DAP, passage 20) was 0.06 µg/mL, the MIC (S. aureus SA0085; [24]) was 0.25 µg/mL and the MIC (S. aureus SA0085; [25]) was 0.06 µg/mL. The MIC (S. aureus SA0085; [26]) was 0.06 µg/mL, the MIC (S. aureus SA0085; [27]) was 0.25 µg/mL and the MIC (S. aureus SA0085; [28]) was 0.25 µg/mL. For the same substance, the MIC values (S. aureus SA0085) was 0.06 µg/mL, the MIC [1] was no more than 0.125 µg/mL and the “MIC by the end of daptomycin selection” value ([1]; derivatives, end of daptomycin selection) was 0.125 to 0.25 µg/mL. For the same substance, the MIC (S. aureus ATCC 29213; [29]) was less than 0.03 µg/mL, the MIC (S. aureus ATCC 29213; [30]) was 0.125 µg/mL and the MIC (S. aureus ATCC 29213; [31]) was 0.25 µg/mL. It also gave an MIC (S. aureus ATCC 29213; [32]) of less than 0.03 µg/mL, an MIC (S. aureus ATCC 29213; [33]) of less than 0.03 µg/mL and an MIC (S. aureus ATCC 29213; [34]) of 0.125 µg/mL. The MIC (S. aureus ATCC 29213; [35]) was 0.5 µg/mL, the MIC values (S. aureus RN4220; Table S1: RN4220 WT) was 0.06 µg/mL and the MIC values (S. aureus RN4220; [36]) was 0.06 µg/mL.
